In US20230047788A1, “COMPOSITIONS COMPRISING 5-CHOLESTEN-3, 25-DIOL, 3-SULFATE (25HC3S) OR PHARMACEUTICALLY ACCEPTABLE SALT THEREOF AND AT LEAST ONE CYCLIC OLIGOSACCHARIDE” (Virginia Commonwealth University, priority 2016, published 2023):

Assay: Effect of phosphate and borate buffers on chemical stability (% remaining, impurity profile), osmolality, pH and appearance of 25HC3S 30 mg/mL in 250 mg/mL HPBCD at 80°C and 60°C
Assay type: physicochemical
Protocol: A total of six 25HC3S formulations at 30 mg/mL in 250 mg/mL of 2-hydroxypropyl beta cyclodextrin (HPBCD) containing 10, 20, 50 and 100 mM phosphate buffers at pH 7.5 to 8.1 and 10 and 50 mM borate buffers at pH 9.4 were prepared for the stability study. The chemical stability (measured as % remaining of 25HC3S) and physical stability (osmolality, pH and appearance) of the formulations were monitored under accelerated conditions for up to 7 days at 80° C. and up to 29 days at 60° C.
Two stock solutions of phosphate buffer at 100 and 200 mM at pH 7.4 and 7.3, respectively and one borate buffer at 100 mM at pH 9.3 were prepared (Tables 22A and 22B) and used for 250 mg/mL HPBCD vehicles preparation (Table 23).
Approximately 1200 mg each of 25HC3S was weighed into 40 mL volumetric flasks and diluted to volume with the six HPBCD vehicles containing 10-100 mM phosphate buffers or 10 and 50 mM borate buffers, respectively (Table 24). The final concentration of 25HC3S was 30 mg/mL (wt/volume, without adjusting for API purity). Aliquots of 2 mL of each formulation were filled into 2 mL glass vials, stoppered and sealed for stability sample set-up at 60° C. and 80° C. to study the effect of phosphate buffer (pH 7.5-8.1) and borate buffer (pH 9.4) at various buffer concentrations on the stability of the HPBCD formulations (Table 26).
A 0.5 mL of sample solution was transferred to a 25 mL volumetric flask and QS'ed with methanol/water=95/5 for 25HC3S concentration determination by HPLC. The % remaining of 25HC3S was calculated as follows: […]

[1] = 60° C., day 0, Phosphate 100 mM
[2] = 60° C., day 29, Phosphate 10 mM
[3] = 60° C., day 29, Phosphate 20 mM
[4] = 60° C., day 29, Phosphate 50 mM
[5] = 60° C., day 29, Phosphate 100 mM

## C[C@H](CCCC(C)(C)O)[C@H]1CC[C@H]2[C@@H]3CC=C4C[C@@H](OS(=O)(=O)[O-])CC[C@]4(C)[C@H]3CC[C@]12C.[Na+] [25HC3S, 5-cholesten-3, 25-diol, 3-sulfate]
60° C., day 0, Borate 50 mM
  pH: 9.40
60° C., day 0, Phosphate 10 mM
  25HC3S: 28.45 mg/mL
  % Peak Area 25-Hydroxy Cholesterol at RRT = 3.67: 0.0 % Peak Area
  % Peak Area 25HC3S: 99.8 % Peak Area
  % Peak Area Major Thermal Degradant at RRT = 2.64: 0.3 % Peak Area
  % Remaining of 25HC3S: 100.0%
  Osmolality: 273 mmol/kg
  pH: 8.09
60° C., day 0, Phosphate 20 mM
  25HC3S: 28.63 mg/mL
  % Peak Area 25-Hydroxy Cholesterol at RRT = 3.67: 0.0 % Peak Area
  % Peak Area 25HC3S: 99.7 % Peak Area
  % Peak Area Major Thermal Degradant at RRT = 2.64: 0.3 % Peak Area
  % Remaining of 25HC3S: 100.0%
  Osmolality: 311 mmol/kg
  pH: 7.81
60° C., day 0, Phosphate 50 mM
  25HC3S: 28.50 mg/mL
  % Peak Area 25-Hydroxy Cholesterol at RRT = 3.67: 0.0 % Peak Area
  % Peak Area 25HC3S: 99.7 % Peak Area
  % Peak Area Major Thermal Degradant at RRT = 2.64: 0.3 % Peak Area
  % Remaining of 25HC3S: 100.0%
  Osmolality: 415 mmol/kg
  pH: 7.63
[1]
  25HC3S: 28.58 mg/mL
  % Peak Area 25-Hydroxy Cholesterol at RRT = 3.67: 0.0 % Peak Area
  % Peak Area 25HC3S: 99.8 % Peak Area
  % Peak Area Major Thermal Degradant at RRT = 2.64: 0.3 % Peak Area
  % Remaining of 25HC3S: 100.0%
  Osmolality: 573 mmol/kg
  pH: 7.53
60° C., day 29, Borate 10 mM
  25HC3S: 26.55 mg/mL
  % Peak Area 25-Hydroxy Cholesterol at RRT = 3.67: 1.3 % Peak Area
  % Peak Area 25HC3S: 98.5 % Peak Area
  % Peak Area Major Thermal Degradant at RRT = 2.64: 0.3 % Peak Area
  % Remaining of 25HC3S: 92.9%
  Osmolality: 326 mmol/kg
  pH: 8.90
60° C., day 29, Borate 50 mM
  25HC3S: 27.03 mg/mL
  % Peak Area 25-Hydroxy Cholesterol at RRT = 3.67: 1.3 % Peak Area
  % Peak Area 25HC3S: 98.5 % Peak Area
  % Peak Area Major Thermal Degradant at RRT = 2.64: 0.3 % Peak Area
  % Remaining of 25HC3S: 94.8%
  Osmolality: 541 mmol/kg
  pH: 9.19
[2]
  25HC3S: 26.65 mg/mL
  % Peak Area 25-Hydroxy Cholesterol at RRT = 3.67: 1.4 % Peak Area
  % Peak Area 25HC3S: 98.3 % Peak Area
  % Peak Area Major Thermal Degradant at RRT = 2.64: 0.3 % Peak Area
  % Remaining of 25HC3S: 93.7%
  Osmolality: 281 mmol/kg
  pH: 7.04
[3]
  25HC3S: 26.78 mg/mL
  % Peak Area 25-Hydroxy Cholesterol at RRT = 3.67: 1.4 % Peak Area
  % Peak Area 25HC3S: 98.3 % Peak Area
  % Peak Area Major Thermal Degradant at RRT = 2.64: 0.3 % Peak Area
  % Remaining of 25HC3S: 93.5%
  Osmolality: 322 mmol/kg
  pH: 7.17
[4]
  25HC3S: 26.63 mg/mL
  % Peak Area 25-Hydroxy Cholesterol at RRT = 3.67: 1.4 % Peak Area
  % Peak Area 25HC3S: 98.3 % Peak Area
  % Peak Area Major Thermal Degradant at RRT = 2.64: 0.3 % Peak Area
  % Remaining of 25HC3S: 93.4%
  Osmolality: 430 mmol/kg
  pH: 7.28
[5]
  25HC3S: 26.63 mg/mL
  % Peak Area 25-Hydroxy Cholesterol at RRT = 3.67: 1.4 % Peak Area
  % Peak Area 25HC3S: 98.4 % Peak Area
  % Peak Area Major Thermal Degradant at RRT = 2.64: 0.3 % Peak Area
  % Remaining of 25HC3S: 93.2%
  Osmolality: 592 mmol/kg
  pH: 7.28
60° C., days 0 and 29, Borate 10 and 50 mM, merged cell wrapped over r16-r18: Clear colorless solution
  Appearance: Clear
60° C., days 0 and 29, Phosphate 10, 20, 50 and 100 mM, merged cell wrapped over r8-r10: Clear colorless solution
  Appearance: Clear
80° C., day 0, Borate 10 mM
  % Peak Area 25-Hydroxy Cholesterol at RRT = 3.67: 0.0 % Peak Area
  % Peak Area 25HC3S: 99.7 % Peak Area
  % Peak Area Major Thermal Degradant at RRT = 2.64: 0.3 % Peak Area
80° C., day 0, Borate 50 mM
  % Peak Area 25-Hydroxy Cholesterol at RRT = 3.67: 0.0 % Peak Area
  % Peak Area 25HC3S: 99.9 % Peak Area
  % Peak Area Major Thermal Degradant at RRT = 2.64: 0.2 % Peak Area
80° C., day 0, Phosphate 10 mM
  % Peak Area 25-Hydroxy Cholesterol at RRT = 3.67: 0.0 % Peak Area
  % Peak Area 25HC3S: 99.8 % Peak Area
